The values that follow come from ChEMBL document CHEMBL4017481, “Computer-aided discovery of two novel chalcone-like compounds active and selective against Leishmania infantum” (Bioorg Med Chem Lett, 2017).

Data set [1] is described as follows: in vitro. To be noted: human.
Description: Selectivity index, ratio of CC50 for human THP1 cells to EC50 for Leishmania infantum MHOM/BR/1972/BH046 amastigotes
The nature of data set [2]: (§1) Cytotoxicity against human THP1 cells measured after 72 hrs by resazurin assay. To be noted: THP-1 cells. In kind it is cell-based, THP-1. A general note: Alamar Blue is a resazurin reagent that responds to reducing activity.
The nature of data set [3]: (§2) Cytotoxicity against African green monkey Vero cells measured after 72 hrs by resazurin assay. To be noted: chlorocebus sabaeus, Vero cells. Format: cell-based.
Another data set deals with Leishmania infantum. The data set can be described thus: microbe, parasite or virus in culture. In kind it is functional. To be noted: MHOM/BR/1972/BH046, 72 h.
The nature of data set [4]: in vitro. The settings on record: monkey, Vero cells.
Description: Selectivity index, ratio of CC50 for African green monkey Vero cells to EC50 for Leishmania infantum MHOM/BR/1972/BH046 amastigotes
The next data set concerns THP-1. The description is as §1. In kind it is cell-based. To be noted: thp-1, 72 h.
For the next data set, the system named is Vero. The data set is described as §2. Format: cell-based. To be noted: chlorocebus sabaeus, vero, 72 h.

One may read the CC50 as the concentration giving 50% cytotoxicity. Usually EC50 stands for the concentration at which the effect is half-maximal.

Description for Leishmania infantum: Anti-leishmanial activity against Leishmania infantum MHOM/BR/1972/BH046 amastigotes infected in cells measured after 3 days by Draq5 staining based assay

Regarding `O=C(/C=C/c1ccc([N+](=O)[O-])o1)c1ccc(Br)cc1`, the selectivity ratio in the data set “in vitro [1]” (THP-1 cells) stood at 0.46; in “in vitro [4]”, 3.4. For the same compound, the CC50 at 72 h in data set [2] was 13.4 µM; in data set [3], above 100 µM. The same compound registered a 50% effective concentration (EC50) in the data set on Leishmania infantum of 29.1 µM.

For `O=C(/C=C/c1ccc([N+](=O)[O-])o1)c1ccc(N2CCCCC2)cc1`, the selectivity ratio was above 7.91 in the data set “in vitro [1]” (THP-1 cells) and 55 in “in vitro [4]”. The CC50 in the data set on THP-1 is above 50 µM; in the data set with Vero, 349 µM. In the data set on Leishmania infantum, the concentration for a half-maximal effect (EC50) was found to be 6.32 µM.

`O=C(/C=C/c1ccc([N+](=O)[O-])o1)c1ccc(N2CCOCC2)cc1`: the CC50 at 72 h in data set [2] is 49 µM; in data set [3], above 100 µM.

Regarding `COc1ccc(/C=C/C(=O)c2cccc(Br)c2)cc1`, the selectivity ratio in “in vitro [1]” (THP-1 cells) is above 50. Moreover, the CC50 at 72 h is above 50 µM in data set [2] and above 100 µM in data set [3]. In the data set on Leishmania infantum, this compound registered a half-maximal effective concentration (EC50) above 50 µM.

In the case of `COc1ccc(/C=C/C(=O)c2cccc(I)c2)cc1`, the CC50 is above 50 µM with THP-1 and above 100 µM in the data set with Vero. In the data set with Leishmania infantum, the half-maximal effective concentration (EC50) is above 50 µM. In addition, in “in vitro [4]”, the selectivity ratio is 2.

In the data set on THP-1, `COc1ccc(/C=C/C(=O)c2ccc(-c3ccccc3)cc2)cc1` gave a CC50 above 50 µM. The 50% effective concentration (EC50) in the data set with Leishmania infantum is above 50 µM.

In the data set with THP-1, `CN(C)c1ccc(/C=C/C(=O)c2ccc(-c3ccccc3)cc2)cc1` displayed a CC50 above 50 µM. Also, in the data set with Leishmania infantum, the EC50 is above 50 µM.

For the compound `O=C(/C=C/c1ccc([N+](=O)[O-])o1)c1ccc(N2CCCC2)cc1`, the selectivity ratio in “in vitro [1]” (THP-1 cells) is above 4.26. Further, in data set [2], the cytotoxic concentration (CC50) at 72 h is above 50 µM. In addition, in the data set with Leishmania infantum, the EC50 stood at 11.8 µM.

For the compound `CC(C)(C)c1ccc(C(=O)/C=C/c2ccc([N+](=O)[O-])s2)cc1`, the selectivity ratio in the data set “in vitro [1]” (THP-1 cells) lay within 0.2 to 0.27; in “in vitro [4]” it was 3 to 3.2. Further, the CC50 at 72 h in data set [2] was in the range of 8.4 to 8.49 µM. In the data set on Vero, the 50% cytotoxic concentration (CC50) is above 100 µM. In the data set with Leishmania infantum, this compound gave an EC50 of 31.1 µM.

With `Cc1cccc(C(=O)/C=C/c2ccc([N+](=O)[O-])o2)c1`, in “in vitro [1]” (THP-1 cells), the selectivity ratio is above 50. For the same compound, the CC50 at 72 h amounted to 42.1 µM in data set [2] and 55.1 µM in data set [3]. The compound also registered an EC50 in the data set with Leishmania infantum above 50 µM.

For `O=C(/C=C/c1ccc([N+](=O)[O-])cc1)c1ccc(N2CCCCC2)cc1`, in the data set on THP-1, the CC50 was above 50 µM. Further, the EC50 in the data set with Leishmania infantum was above 50 µM.

For `O=C(/C=C/c1ccc([N+](=O)[O-])o1)c1ccc(-n2ccnc2)cc1`, the selectivity ratio in “in vitro [1]” (THP-1 cells) is 1.79; in “in vitro [4]”, 8.1. Besides, the cytotoxic concentration (CC50) at 72 h in data set [2] is 22.2 µM; in data set [3], above 100 µM. For the same compound, the response in the data set on Leishmania infantum was half-maximal at 12.4 µM (EC50).

On to `O=C(/C=C/c1ccc([N+](=O)[O-])o1)c1ccc(N2CCNCC2)cc1`, for which the values for the selectivity ratio in “in vitro [1]” (THP-1 cells) and in “in vitro [4]” were above 5.2 and 10 to 10.4, respectively. Also, the half-maximal cytotoxic concentration (CC50) is above 50 µM in the data set on THP-1 and above 100 µM in the data set on Vero. Also, the EC50 with Leishmania infantum came out at 9.6 µM.

The compound `Cc1ccc(C(=O)/C=C/c2ccc([N+](=O)[O-])s2)cc1` gave a half-maximal cytotoxic concentration (CC50) at 72 h in data set [2] of 13.5 µM. This compound also came in with a half-maximal effective concentration (EC50) with Leishmania infantum above 50 µM.

In the case of `O=C(/C=C/c1ccc([N+](=O)[O-])o1)c1ccc(C2CCCCC2)cc1`, the selectivity ratio in “in vitro [1]” (THP-1 cells) lay in the range of 2.8 to 2.84; in “in vitro [4]” it was 9.1 to 10. The compound also returned a CC50 at 72 h in data set [2] of 3.1 to 31.1 µM. For the same compound, in the data set on Vero, the CC50 is above 100 µM.

Turning to `O=C(/C=C/c1ccc([N+](=O)[O-])o1)c1ccc(I)cc1`, the selectivity ratio in “in vitro [1]” (THP-1 cells) is 1.8 to 1.82; in the data set “in vitro [4]”, 3.6. The compound also gave a CC50 at 72 h in data set [2] of 49.5 µM. The compound further showed a CC50 in the data set on Vero above 100 µM.

`O=C(/C=C/c1ccc([N+](=O)[O-])s1)c1ccc(C2CCCCC2)cc1` registered a CC50 at 72 h in data set [2] above 50 µM. Further, in the data set with Leishmania infantum, the EC50 was above 50 µM.

The compound `O=C(/C=C/c1ccc([N+](=O)[O-])s1)c1ccc(N2CCOCC2)cc1` had a half-maximal cytotoxic concentration (CC50) at 72 h in data set [2] of 39.9 µM. Further, the EC50 with Leishmania infantum is above 50 µM.

The compound `CC(C)(C)c1ccc(C(=O)/C=C/c2ccco2)cc1` came in with a CC50 at 72 h in data set [2] above 50 µM. This compound returned an EC50 in the data set on Leishmania infantum above 50 µM.

As to `CC(C)(C)c1ccc(C(=O)/C=C/c2ccc([N+](=O)[O-])o2)cc1`, the CC50 at 72 h is above 50 µM in data set [2] and above 100 µM in data set [3]. In the data set on Leishmania infantum, this compound returned a concentration for a half-maximal effect (EC50) above 50 µM.

As to `Cc1ccccc1C(=O)/C=C/c1ccc([N+](=O)[O-])o1`, the selectivity ratio in the data set “in vitro [1]” (THP-1 cells) was 0.74; in the data set “in vitro [4]”, 1. For the same compound, the CC50 at 72 h in data set [2] was 27.9 µM; in data set [3], 41.3 µM. The 50% effective concentration (EC50) in the data set on Leishmania infantum worked out at 37.7 µM.

As for `CSc1ccc(C(=O)/C=C/c2ccc([N+](=O)[O-])s2)cc1`, the values for the 50% cytotoxic concentration (CC50) at 72 h in data set [2] and in data set [3] were 8.56 µM and above 100 µM, respectively. The EC50 in the data set with Leishmania infantum is above 50 µM.

Turning to `O=C(/C=C/c1ccco1)c1ccc(N2CCCCC2)cc1`, in the data set “in vitro [1]” (THP-1 cells), the selectivity ratio is above 50. Moreover, the 50% cytotoxic concentration (CC50) at 72 h in data set [2] is above 50 µM. Moreover, in the data set on Leishmania infantum, the EC50 is above 50 µM.

Turning to `O=C(/C=C/c1ccc([N+](=O)[O-])o1)c1ccc(-c2ccccc2)cc1`, the selectivity ratio was 2.35 in “in vitro [1]” (THP-1 cells) and 4.7 in the data set “in vitro [4]”. The half-maximal cytotoxic concentration (CC50) at 72 h in data set [2] was 50.4 µM; in data set [3], above 100 µM. Further, the concentration giving a half-maximal response (EC50) in the data set with Leishmania infantum was found to be 21.4 µM.

In the case of `O=C(/C=C/c1ccc([N+](=O)[O-])s1)c1ccc(-n2ccnc2)cc1`, the selectivity ratio in “in vitro [1]” (THP-1 cells) turned out to be 0.75; in the data set “in vitro [4]”, 1.3. In addition, the CC50 at 72 h in data set [2] turned out to be 23.4 µM; in data set [3], 42.7 µM. This compound gave an EC50 with Leishmania infantum of 31.4 µM.

For the compound `CSc1ccc(C(=O)/C=C/c2ccco2)cc1`, the selectivity ratio in the data set “in vitro [1]” (THP-1 cells) was above 1.09. Moreover, the CC50 at 72 h in data set [2] was above 50 µM. In the data set with Leishmania infantum, it took 45.5 µM to reach a half-maximal effect (EC50).

For `CCCCc1ccc(C(=O)/C=C/c2ccc([N+](=O)[O-])s2)cc1`, the CC50 at 72 h was 17.1 µM in data set [2] and 81.3 µM in data set [3]. Besides, the EC50 in the data set on Leishmania infantum was above 50 µM.

In the case of `O=C(/C=C/c1cccc([N+](=O)[O-])c1)c1ccc(N2CCCCC2)cc1`, the selectivity ratio in the data set “in vitro [1]” (THP-1 cells) was above 1.62. For the same compound, the CC50 in the data set on THP-1 is above 50 µM. In addition, the EC50 in the data set on Leishmania infantum worked out at 30.8 µM.

Take `CCCCc1ccc(C(=O)/C=C/c2ccc([N+](=O)[O-])o2)cc1`: the half-maximal cytotoxic concentration (CC50) at 72 h in data set [2] turned out to be 48.7 µM; in data set [3] it was 75.7 µM. This compound also displayed an EC50 with Leishmania infantum above 50 µM.

Consider `O=C(/C=C/c1ccc(Cl)s1)c1ccc(-n2ccnc2)cc1`, for which the selectivity ratio in “in vitro [1]” (THP-1 cells) is above 2.33. The compound further registered a CC50 at 72 h in data set [2] above 50 µM. For the same compound, in the data set on Leishmania infantum, the response was half-maximal at 21.4 µM (EC50).

Regarding `O=C(/C=C/c1ccc([N+](=O)[O-])o1)c1cccc(Br)c1`, the selectivity ratio was 0.6 to 0.63 in “in vitro [1]” (THP-1 cells) and 2.8 to 2.9 in the data set “in vitro [4]”. Moreover, the 50% cytotoxic concentration (CC50) in the data set with THP-1 was 14.9 µM; with Vero, 68.8 µM. The compound further gave an EC50 in the data set on Leishmania infantum of 23.8 µM.

Regarding `CSc1ccc(C(=O)/C=C/c2ccc([N+](=O)[O-])o2)cc1`, the selectivity ratio in the data set “in vitro [1]” (THP-1 cells) was 1.4 to 1.41; in the data set “in vitro [4]”, 4.3. Moreover, in data set [2], the 50% cytotoxic concentration (CC50) at 72 h was 13.1 µM. Also, half-maximal cytotoxicity with Vero (CC50) was put at 40.7 µM. In the data set with Leishmania infantum, this compound displayed a concentration giving a half-maximal response (EC50) of 9.31 µM.

As to `C[C@@H]1[C@H](O)[C@@H](C)/C=C/C=C/C=C/C=C/C=C/C=C/C=C/[C@H](O[C@@H]2O[C@H](C)[C@@H](O)[C@H](N)[C@@H]2O)C[C@@H]2O[C@](O)(C[C@@H](O)C[C@@H](O)[C@H](O)CC[C@@H](O)C[C@@H](O)CC(=O)O[C@H]1C)C[C@H](O)[C@H]2C(=O)O` [AMPHOTERICIN B], the selectivity ratio in “in vitro [1]” is above 26. The CC50 at 72 h in data set [2] was above 50 µM. Further, the EC50 in the data set on Leishmania infantum is 1.92 µM.
